Measurements as given in PubChem BioAssay (NCI).
Where “and” joins values, the source holds several entries; their conditions need not be identical. Identical values can stand only once.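 A five-concentration, 48-hour dose response in 96-well plates underlies each endpoint, interpolated linearly between surrounding concentrations. GI50: concentration for 50% inhibition of growth. TGI: concentration producing complete growth inhibition.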

Key:
Assay in all cases: NCI-60 cell line screen, 48 h
BT-549 breast = test system: BT-549 breast
OVCAR-8 ovarian = test system: OVCAR-8 ovarian
RXF 393 renal = test system: RXF 393 renal
PC-3 prostate = test system: PC-3 prostate
HOP-62 NSCLC = test system: HOP-62 NSCLC
HS 578T breast = test system: HS 578T breast
HCC-2998 colon = test system: HCC-2998 colon
OVCAR-3 ovarian = test system: OVCAR-3 ovarian
MCF7 breast = test system: MCF7 breast
CCRF-CEM leukemia = test system: CCRF-CEM leukemia

SMILES	GI50 (BT-549 breast) [µM]	TGI (BT-549 breast) [µM]	GI50 (OVCAR-8 ovarian)	TGI (OVCAR-8 ovarian) [µM]	GI50 (RXF 393 renal) [µM]	TGI (RXF 393 renal) [µM]	GI50 (PC-3 prostate) [µM]	TGI (PC-3 prostate) [µM]	GI50 (HOP-62 NSCLC) [µM]	TGI (HOP-62 NSCLC) [µM]	GI50 (HS 578T breast)	TGI (HS 578T breast) [µM]	GI50 (HCC-2998 colon)	TGI (HCC-2998 colon) [µM]	GI50 (OVCAR-3 ovarian)	TGI (OVCAR-3 ovarian) [µM]	GI50 (MCF7 breast)	TGI (MCF7 breast) [µM]	GI50 (CCRF-CEM leukemia) [µM]	TGI (CCRF-CEM leukemia) [µM]
CC1(C)CC[C@]2(CO)CC[C@]3(C)C(=CC[C@@H]4[C@@]5(C)CCNCC(C)(C)[C@@H]5CC[C@]43C)[C@@H]2C1	4.79	18.3	4.77 µM	24.8	1.95	4.83	4.32	18.3	3.65	15.3	4.88 µM	22.1	1.89 µM	4.07	6.68 µM	27.7	3.07 µM	13.3	5.47	23.1
CCOC(=O)c1cc2c(n1Cc1cc(OC)cc(OC)c1)-c1oncc1CC2	4.37	> 100	0.475 µM	> 100	0.136	> 100	0.383	> 100	0.327	> 100	0.156 µM	> 96.2	0.411 µM	> 100	0.0389 µM	0.197	0.0492 µM	> 100	0.215	> 100
O=C(O)c1[nH]c2c([N+](=O)[O-])cc([N+](=O)[O-])cc2c1C(=O)O	–	> 100	–	> 100	–	> 100	–	> 100	–	> 100	–	> 100	–	> 100	–	> 100	–	> 100	–	> 100
NS(=O)(=O)c1cc(C(=O)O)c(Cl)c([N+](=O)[O-])c1Cl	–	> 100	–	> 100	–	> 100	–	> 100	–	> 100	–	> 100	–	> 100	–	> 100	–	> 100	–	> 100
Cn1cc(-c2nc(-c3cn(C)c4ncccc34)cs2)c2ccccc21	2.32	31	3.43 µM	> 100	1.53	4.09	1.92	9.3	2.01	11.5	4.14 µM	> 100	2.05 µM	> 100	0.414 µM	1.71	0.372 µM	17.5	2.98	> 100
CN(C)C/C=C/C(=O)Nc1cc2c(Nc3cccc(Cl)c3F)ncnc2cc1OCCOC(F)F	2.02	9.57	1.11 µM	12.4	0.566	2.71	2.38	13.6	1.99	11.5	1.46 µM	7.02	2.1 µM	10.9	0.343 µM	4	1.49 µM	12	2.83	15.7
CCC(C)C(=O)OC1CCC=C2C=CC(C)C(CCC3CC(O)CC(=O)O3)C21 (configuration not stated)	–	73	–	> 100	–	> 80.6	–	> 47.9	–	> 100	–	17.4	–	> 100	–	> 100	–	> 72.2	–	> 100
C=C1C(=O)O[C@H]2[C@H]1CC/C(COC(=O)N[C@H](Cc1c[nH]c3ccccc13)C(=O)OC)=C\CC[C@@]1(C)O[C@@H]21	1.37	2.96	2.8 µM	9.13	1.28	2.66	6.49	20.5	12.5	28.5	12.6 µM	44.2	2.25 µM	4.6	1.44 µM	3.07	1.24 µM	2.99	1.78	6.69
OCC1OC(n2cnc3c(NCc4ccccc4O)ncnc32)C(O)C1O (configuration not stated)	0.177	2.29	0.225 µM	8.09	4.62	> 100	0.523	> 50.1	2.33	18.2	1.96 µM	> 58.6	1.76 µM	8.42	0.388 µM	2.08	2.05 µM	17.1	0.274	33.6
C[C@@H](Oc1cc(-c2cnn(C3CCNCC3)c2)cnc1N)c1c(Cl)cc(F)cc1Cl	4.08	13	3.83 µM	16.3	1.5	3.09	1.99	14.7	2	9.52	2.41 µM	10.1	2.42 µM	8.65	4.13 µM	13.5	0.516 µM	2.12	0.504	9.88
CC(=N/NC(N)=S)/C(C)=N/NC(N)=S	–	> 100	–	> 100	–	> 100	–	> 100	–	> 100	–	> 100	–	> 100	–	> 100	–	> 100	–	> 100
CC1(C)CN(CCNc2nccc(-c3c(-c4cccc(O)c4)nc4sccn34)n2)S(=O)(=O)N1	> 22.5	> 33.2	0.307 µM	> 33.2	3	21.6	17.1	> 33.2	32.7	> 33.2	4.72 µM	25	19.5 µM	> 33.2	12.2 µM	> 33.2	9.66 µM	> 33.2	7.25	> 33.2
O=C(c1ccc(Nc2nccc(NCCCCNc3ccnc4cc(Cl)ccc34)n2)cc1)N1CCCCC1	1.75	3.42	2.63 µM	8.74	1.33	2.82	0.955	7.89	2.24	6.02	1.8 µM	4.62	1.91 µM	5.42	1.92 µM	4.63	1.83 µM	7.64	1.48	> 100
NC(Cc1c[nH]c2cccc(F)c12)C(=O)O (configuration not stated)	151	873	72.5 µM and 522 µM	2820	1320	> 4500	–	> 4500	–	3180	62.9 µM and 501 µM	> 4500	73.2 µM and 694 µM	2400	39.6 µM and 237 µM	967	35.4 µM and 327 µM	1650	–	> 4500
Cc1ccc(NC2=CC(=O)C(=O)c3ccccc32)cc1	1.73	3.31	2.4 µM	7.82	3.32	13.7	1.87	15.7	1.8	4.33	2.54 µM	7.26	2.11 µM	4.89	1.66 µM	4.86	1.54 µM	3.63	5.62	> 100
